Assays:
DC-3F/AD = test: Cytotoxicity: reversal of resistance to actinomycin D (reversion factor), line DC-3F/AD; format: cell-based, Chinese hamster
Protocol: (§1) The parameter measured is the cytotoxicity of the antitumour drug, quantified in the absence and in the presence of the reversing compound. Two resistant cell lines were used: 1 Chinese hamster lung line, DC-3F/AD, the resistance of which was induced by actinomycin D. […] The compounds tested for their capacity to reverse the resistance are added at the same time as the cytotoxic agent. The cells are then incubated for 4 days.

KB-A1 [1] = test: Cytotoxicity: reversal of resistance to adriamycin (reversion factor), line KB-A1; format: cell-based, Human
Protocol: as §1, with “compound.” for “compound. Two resistant cell lines were used: 1 Chinese hamster lung line, DC-3F/AD, the resistance of which was induced by actinomycin D.”

KB-A1 [2] = test: Flow cytometry: intracellular accumulation of ADR, line KB-A1; format: cell-based, Human; settings: ADR 50 μM, 5 hours
Protocol: Also measured was the effect of the compounds on the intracellular concentration of adriamycin. […] By measuring that fluorescence, it is thus possible to obtain a relative measurement of the intracellular concentration of ADR. […] The cells (5×10^5 per ml) were exposed simultaneously to ADR at a fixed concentration (50 μM) and to the tested compounds at various concentrations. After 5 hours' incubation, the intracellular accumulation of ADR was evaluated by FCM. […] The results were presented in the form of linear histograms of the intracellular ADR fluorescence. Expression of the results: for each of the histograms the mean fluorescence per channel (MEAN) was determined by the computer of the apparatus. For all experiments: a negative control (cells without ADR) fixed the autofluorescence threshold. a positive control (cells with ADR) determined the MEAN value=MN1. the "test" tubes (cells with ADR and with compound) were used to determine, for each of the compounds and at each of the concentrations, the MEAN values=MN2. The results are expressed in the form of variations from the mean fluorescence obtained for each of the "test" tubes (MN2) in relation to the mean fluorescence obtained with the positive control (MN1): VAR-MEAN=MN2-MN1. The measured parameter is thus the increase in ADR fluorescence in the presence of the tested compounds.

Plasmodium falciparum = settings: literature (Krogstad; Martin; Deloron); cited from earlier work
P 388/VCR = test: In vivo increase in antitumour activity of vincristine, resistant line P 388/VCR; set-up: species or system murine leukaemia in female B6D2F1 mice
Excerpt: This study was completed by an in vivo study, using a murine leukaemia resistant to vincristine (P 388/VCR) and using the compounds of the present invention in association with vincristine.
(§2) The sensitive parent line P 388 (murine leukaemia) and the sub-line resistant to vincristine, P 388/VCR, were supplied by NCI (Frederick, USA). The tumour cells (10^6 cells) were inoculated on day 0 into the indraperitoneal cavity of female B6D2F1 mice (Iffa Credo, France) weighing from 18 to 20 g (groups of 8 to 10 animals).
Every day for 4 days, starting from day 1, the animals received:
an administration of 25 to 150 mg/kg by i.p., p.o. or i.v. route of the compound of the present invention to be tested, as mentioned in the table 4a; then
(§3) 30 to 60 minutes later, an administration by the i.p. route of 0.25 mg/kg of vincristine (used as a reference antitumour agent).
(§4) The antitumour activity is expressed as follows: [formula]
(§5) The values are mean values obtained in independent experiments (# sem when n is greater than or equal to 3).

P 388 = test: In vivo increase in antitumour activity of vincristine, sensitive line P388; set-up: species or system murine leukaemia in female B6D2F1 mice; settings: compound 150 mg/kg p.o.
Protocol: as §2
Every day for 4 days, starting from day 1, the animals received: […]
as §3, §4, §5
Using the sensitive line (P388) the tested compounds of the invention increase considerably the sensitivity of the cells to vincristine.

calcium channel = target: T1, calcium channel (Sus scrofa, UniProt A0A8W4FNC0); test: Affinity for the calcium channel labelled with [^3 ] PN 200110, aorta smooth muscle microsome preparations; format: binding; settings: pig aorta smooth muscle microsomes; means of three independent experiments
T1 construct: pig aorta smooth muscle microsome preparations; from tissue; host or cells: pig aorta smooth muscle microsomes
T1 sequence (A0A8W4FNC0 1-2067): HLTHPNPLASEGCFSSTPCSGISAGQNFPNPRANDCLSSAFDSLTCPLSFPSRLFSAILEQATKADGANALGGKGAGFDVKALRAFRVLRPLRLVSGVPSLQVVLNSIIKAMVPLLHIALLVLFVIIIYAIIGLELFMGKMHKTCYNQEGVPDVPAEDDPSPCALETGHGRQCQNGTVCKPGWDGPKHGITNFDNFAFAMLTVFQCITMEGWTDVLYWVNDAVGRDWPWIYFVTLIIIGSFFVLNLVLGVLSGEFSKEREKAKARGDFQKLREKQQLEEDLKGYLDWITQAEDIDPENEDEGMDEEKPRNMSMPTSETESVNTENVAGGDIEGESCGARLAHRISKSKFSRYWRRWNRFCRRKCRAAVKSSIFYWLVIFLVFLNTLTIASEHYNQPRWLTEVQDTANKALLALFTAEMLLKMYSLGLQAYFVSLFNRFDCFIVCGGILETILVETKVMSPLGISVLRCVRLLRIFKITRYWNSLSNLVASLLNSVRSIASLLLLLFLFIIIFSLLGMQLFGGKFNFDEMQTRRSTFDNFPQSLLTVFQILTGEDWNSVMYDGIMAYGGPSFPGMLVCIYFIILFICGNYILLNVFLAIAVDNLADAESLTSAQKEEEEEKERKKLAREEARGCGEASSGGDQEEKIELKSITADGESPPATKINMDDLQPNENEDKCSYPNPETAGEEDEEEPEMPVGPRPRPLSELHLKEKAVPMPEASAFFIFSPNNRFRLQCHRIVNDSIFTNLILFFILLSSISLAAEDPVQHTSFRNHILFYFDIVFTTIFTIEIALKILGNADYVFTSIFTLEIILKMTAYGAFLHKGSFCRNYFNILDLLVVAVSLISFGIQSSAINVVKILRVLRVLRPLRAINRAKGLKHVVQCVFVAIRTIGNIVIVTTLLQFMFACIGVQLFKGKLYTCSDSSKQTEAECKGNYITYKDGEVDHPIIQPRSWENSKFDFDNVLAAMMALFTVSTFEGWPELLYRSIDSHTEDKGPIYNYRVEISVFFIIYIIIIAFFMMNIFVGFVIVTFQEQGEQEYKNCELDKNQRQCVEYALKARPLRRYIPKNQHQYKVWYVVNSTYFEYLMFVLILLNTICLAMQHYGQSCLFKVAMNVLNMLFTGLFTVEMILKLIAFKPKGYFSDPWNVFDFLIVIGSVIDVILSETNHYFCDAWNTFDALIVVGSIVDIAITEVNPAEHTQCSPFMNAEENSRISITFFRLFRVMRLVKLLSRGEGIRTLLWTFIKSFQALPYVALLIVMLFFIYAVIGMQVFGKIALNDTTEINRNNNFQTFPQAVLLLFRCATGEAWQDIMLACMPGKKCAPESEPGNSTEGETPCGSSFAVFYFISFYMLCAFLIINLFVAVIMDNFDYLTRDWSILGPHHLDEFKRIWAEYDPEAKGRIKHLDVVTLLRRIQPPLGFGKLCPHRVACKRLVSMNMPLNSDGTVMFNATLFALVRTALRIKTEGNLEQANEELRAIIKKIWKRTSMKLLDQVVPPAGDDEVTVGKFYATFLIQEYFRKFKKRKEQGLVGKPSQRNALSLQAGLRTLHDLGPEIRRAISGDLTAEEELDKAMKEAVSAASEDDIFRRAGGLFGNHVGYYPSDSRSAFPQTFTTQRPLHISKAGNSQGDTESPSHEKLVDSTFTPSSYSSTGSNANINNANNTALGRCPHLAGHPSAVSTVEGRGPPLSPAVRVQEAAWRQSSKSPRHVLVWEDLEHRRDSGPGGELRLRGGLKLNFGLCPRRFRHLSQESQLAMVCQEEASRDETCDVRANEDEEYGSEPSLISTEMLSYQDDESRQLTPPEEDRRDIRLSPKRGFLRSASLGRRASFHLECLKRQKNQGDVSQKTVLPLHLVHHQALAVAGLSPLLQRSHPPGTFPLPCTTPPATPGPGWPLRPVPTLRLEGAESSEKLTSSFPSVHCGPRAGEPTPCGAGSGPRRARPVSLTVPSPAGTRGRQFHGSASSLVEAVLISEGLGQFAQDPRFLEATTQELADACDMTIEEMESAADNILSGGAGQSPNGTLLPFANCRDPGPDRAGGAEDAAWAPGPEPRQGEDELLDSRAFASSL
Excerpt: The results are expressed as IC50 (M) and represent means of three independent experiments.

[3] = with VCR […] i.p., compound 50 mg/kg i.p.
[4] = with VCR […] i.p., compound 150 mg/kg p.o.

IC50 (calcium channel) | Compound | reversion factor (RF) (DC-3F/AD; compound 1 μM) | reversion factor (RF) (DC-3F/AD; compound 5 μM) | reversion factor (RF) (KB-A1 [1]; compound 1 μM) | reversion factor (RF) (KB-A1 [1]; compound 5 μM) | increase in the ADR fluorescence (VAR-MEAN) (KB-A1 [2]; compound 1 μM) | increase in the ADR fluorescence (VAR-MEAN) (KB-A1 [2]; compound 5 μM) | increase in the ADR fluorescence (VAR-MEAN) (KB-A1 [2]; compound […]) | sensitivity of a chloroquine-resistant line to chloroquine (Plasmodium falciparum) | T/C (P 388/VCR; VCR 0, compound 50 mg/kg i.p.) | T/C (P 388/VCR; VCR 0, compound 150 mg/kg p.o.) | T/C (P 388/VCR; [3]) | T/C (P 388/VCR; [4]) | Survivors on day 60 (P 388; VCR 0) | T/C (P 388; VCR 0) | Survivors on day 60 (P 388; with VCR […] i.p.) | T/C (P 388; with VCR […] i.p.)
 | CCOC(=O)C1=C(COCCN)NC(C)=C(C(=O)OC)C1c1ccccc1Cl (centres unmarked) [AMLODIPINE, amlodipine, reference compound] | 1.0 | 2.6 | 1.5 | 5.9 | 0.0 | 4.7 | 2.1 | restores the sensitivity of a line resistant to chloroquine |  |  |  |  |  |  |  | 
1300 nM | CCOC(=O)C1=C(COCCOCCNCc2ccc3ccccc3c2)NC(C)=C(C(=O)OC)C1c1cccc(Cl)c1Cl (stereo not drawn) [Example 12, d-2-{[2-(2-(N-naphth-2-ylmethylamino)ethoxy)ethoxy]methyl}-4-(2,3-dichlorophenyl)-3-ethoxycarbonyl-5-methoxycarbonyl-6-methyl-1,4-dihydropyridine] | 1.1 | 1,320.1 | 1.2 | 125.4 |  |  |  |  |  |  |  |  |  |  |  | 
1600 nM | CCOC(=O)C1=C(COCCOCCNCc2ccccn2)NC(C)=C(C(=O)OC)C1c1cccc(Cl)c1Cl (stereo not drawn) [Example 16, d-2-{[2-(2-(N-pyrid-2-ylmethylamino)ethoxy)ethoxy]methyl}-4-(2,3-dichlorophenyl)-3-ethoxycarbonyl-5-methoxycarbonyl-6-methyl-1,4-dihydropyridine] | 3.4 | 8,248.4 | 13.9 | 122.4 |  |  |  |  |  |  |  |  |  |  |  | 
1400 nM | CCOC(=O)C1=C(COCCOCCNCc2cccnc2)NC(C)=C(C(=O)OC)C1c1cccc(Cl)c1Cl (stereo not drawn) [Example 17, d-2-{[2-(2-(N-pyrid-3-ylmethylamino)ethoxy)ethoxy]methyl}-4-(2,3-dichlorophenyl)-3-ethoxycarbonyl-5-methoxycarbonyl-6-methyl-1,4-dihydropyridine] | 3.7 | 8,600.0 | 10.5 | 120.7 |  |  |  |  |  |  |  |  |  |  |  | 
1100 nM | CCOC(=O)C1=C(COCCOCCNCc2ccnc3ccccc23)NC(C)=C(C(=O)OC)C1c1cccc(Cl)c1Cl (stereo not drawn) [Example 18, d-2-{[2-(2-(N-quinol-4-ylmethylamino)ethoxy)ethoxy]methyl}-4-(2,3-dichlorophenyl)-3-ethoxycarbonyl-5-methoxycarbonyl-6-methyl-1,4-dihydropyridine] | 3.3 | 5,018.4 | 4.3 | 348.2 |  |  |  |  |  |  |  |  |  |  |  | 
3200 nM | CCOC(=O)C1=C(COCCOCCNCc2nccc3ccccc23)NC(C)=C(C(=O)OC)C1c1cccc(Cl)c1Cl (stereo not drawn) [Example 19, d-2-{[2-(2-(N-isoquinol-1-ylmethylamino)ethoxy)ethoxy]methyl}-4-(2,3-dichlorophenyl)-3-ethoxycarbonyl-5-methoxycarbonyl-6-methyl-1,4-dihydropyridine] | 1.5 | 1,701.7 | 3.6 | 140.5 | 9.4 | 34.7 | 15.7 |  |  |  |  |  |  |  |  | 
2000 nM | CCOC(=O)C1=C(COCCOCCNCc2cnc3ccccc3c2)NC(C)=C(C(=O)OC)C1c1cccc(Cl)c1Cl (stereo not drawn) [Example 23, d-2-{[2-(2-[N-(quinol-3-yl)methylamino]ethoxy)ethoxy]methyl}-4-(2,3-dichlorophenyl)-3-ethoxycarbonyl-5-methoxycarbonyl-6-methyl-1,4-dihydropyridine] | 10.2 | 2,304.0 | 19.6 | 1,035.8 |  |  |  |  |  |  |  |  |  |  |  | 
 | COc1ccc(CCN(C)CCCC(C#N)(c2ccc(OC)c(OC)c2)C(C)C)cc1OC (centres unmarked) [verapamil, reference compound] | 1.0 | 3.1 | 4.6 | 26.0 | 3.7 | 12.2 | 8.6 | restores the sensitivity of a line resistant to chloroquine |  |  |  |  |  |  |  | 

Compound | IC50 (calcium channel) | reversion factor (RF) (DC-3F/AD; compound 1 μM) | reversion factor (RF) (DC-3F/AD; compound 5 μM) | reversion factor (RF) (KB-A1 [1]; compound 1 μM) | reversion factor (RF) (KB-A1 [1]; compound 5 μM) | increase in the ADR fluorescence (VAR-MEAN) (KB-A1 [2]; compound 1 μM) | increase in the ADR fluorescence (VAR-MEAN) (KB-A1 [2]; compound 5 μM) | increase in the ADR fluorescence (VAR-MEAN) (KB-A1 [2]; compound […]) | sensitivity of a chloroquine-resistant line to chloroquine (Plasmodium falciparum) | T/C (P 388/VCR; VCR 0, compound 50 mg/kg i.p.) | T/C (P 388/VCR; VCR 0, compound 150 mg/kg p.o.) | T/C (P 388/VCR; [3]) | T/C (P 388/VCR; [4]) | Survivors on day 60 (P 388; VCR 0) | T/C (P 388; VCR 0) | Survivors on day 60 (P 388; with VCR […] i.p.) | T/C (P 388; with VCR […] i.p.)
CCOC(=O)C1=C(COCCOCCNCc2ccc([N+](=O)[O-])cc2)NC(C)=C(C(=O)OC)C1c1cccc(Cl)c1Cl (stereo not drawn) [Example 1, d-2-{[2-(2-(N-p-nitrobenzylamino)ethoxy)ethoxy]methyl}-4-(2,3-dichlorophenyl)-3-ethoxycarbonyl-5-methoxycarbonyl-6-methyl-1,4-dihydropyridine] | 1600 nM | 21.0 | 2,613.2 | 32.1 | 640.5 | 5.5 | 45.7 | 26.1 |  | 107% | 99% | 171% | 185% | 0/8 | 99% | 4/8 | > 532%
CCOC(=O)C1=C(COCCOCCNCc2ccsc2)NC(C)=C(C(=O)OC)C1c1cccc(Cl)c1Cl (stereo not drawn) [Example 14, d-2-{[2-(2-(N-thien-3-ylmethylamino)ethoxy)ethoxy]methyl}-4-(2,3-dichlorophenyl)-3-ethoxycarbonyl-5-methoxycarbonyl-6-methyl-1,4-dihydropyridine] | 1000 nM | 8.2 | 4,463.2 | 22.7 | 169.4 | 2.4 | 20.5 | 8.2 |  | 99% | 103% | 164% | 200% |  | 95% | 4/8 | > 587%
